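Values below derive from 48-hour exposures of cells grown in 96-well plates, with endpoints linearly interpolated between the two concentrations bracketing the appropriate inhibition level. GI50: concentration for 50% inhibition of growth.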 Calls of active or inactive are those of the source. Rule as the data show it: active = GI50 up to about 1.1 µM and inactive = higher.
What was measured:
Test in all cases: growth of human tumour cells (NCI), 48 h
[1] = tested on: NCI-H522
[2] = tested on: SR
[3] = tested on: SK-MEL-28
[4] = tested on: K562
[5] = tested on: NCI-H460
[6] = tested on: A498
[7] = tested on: CAKI-1
[8] = tested on: HT-29
[9] = tested on: NCI-H23
[10] = tested on: SNB-19
[11] = tested on: SW-620
[12] = tested on: RXF 393
[13] = tested on: HCT-116
[14] = tested on: NCI-H226
[15] = tested on: NCI/ADR-RES
[16] = tested on: UACC-62
[17] = tested on: HCT-15
[18] = tested on: HOP-62
[19] = tested on: SF-539
[20] = tested on: Malme-3M
[21] = tested on: MDA-MB-231
[22] = tested on: COLO 205
[23] = tested on: SN12C
[24] = tested on: M14
[25] = tested on: ACHN
[26] = tested on: EKVX
[27] = tested on: HOP-92
[28] = tested on: IGROV-1
[29] = tested on: UO-31
[30] = tested on: SF-268
[31] = tested on: PC-3
[32] = tested on: DU-145
[33] = tested on: SK-OV-3
[34] = tested on: BT-549
[35] = tested on: SK-MEL-2
[36] = tested on: U-251
[37] = tested on: MCF7
[38] = tested on: TK-10
[39] = tested on: KM12
[40] = tested on: OVCAR-3
[41] = tested on: Hs-578T
[42] = tested on: A549
[43] = tested on: RPMI-8226
[44] = tested on: OVCAR-4
[45] = tested on: UACC-257
[46] = tested on: LOX IMVI
[47] = tested on: MDA-MB-435
[48] = tested on: SK-MEL-5
[49] = tested on: OVCAR-5
[50] = tested on: CCRF-CEM
[51] = tested on: MDA-N
[52] = tested on: T47D
[53] = tested on: SF-295
[54] = tested on: MOLT-4
[55] = tested on: 786-0
[56] = tested on: OVCAR-8
[57] = tested on: HL-60
[58] = tested on: SNB-75
[59] = tested on: HCC 2998

Q: For `Cc1cc(C)c2c(=O)n(CN3CC4Nc5ccccc5C4C3)sc2n1` (centres undefined), which GI50 [1] is on record?
A: 4.19 µM (inactive)

Q: What about the GI50 [2] of the same molecule?
A: 23.6 µM (inactive)

Q: And the GI50 [3]?
A: 22.1 µM (inactive)

Q: What about the GI50 [4] of the same molecule?
A: 27.9 µM (inactive)

Q: What about the GI50 [5] of the same molecule?
A: 20.9 µM (inactive)

Q: What about the GI50 [6] of the same molecule?
A: 37.9 µM (inactive)

Q: What about the GI50 [7] of the same molecule?
A: 21 µM (inactive)

Q: What about the GI50 [8] of the same molecule?
A: 21.3 µM (inactive)

Q: And the GI50 [9]?
A: 22 µM (inactive)

Q: And the GI50 [10]?
A: 65.9 µM (inactive)

Q: And the GI50 [11]?
A: 22.8 µM (inactive)

Q: And the GI50 [12]?
A: 22.8 µM (inactive)

Q: And the GI50 [13]?
A: 20.4 µM (inactive)

Q: And the GI50 [14]?
A: 20.8 µM (inactive)

Q: What about the GI50 [15] of the same molecule?
A: 35.6 µM (inactive)

Q: What about the GI50 [16] of the same molecule?
A: 23.8 µM (inactive)

Q: And the GI50 [17]?
A: 21 µM

Q: What about the GI50 [18] of the same molecule?
A: 35.6 µM (inactive)

Q: What about the GI50 [19] of the same molecule?
A: 19.9 µM (inactive)

Q: And the GI50 [20]?
A: 11.7 µM (inactive)

Q: What about the GI50 [21] of the same molecule?
A: 18.7 µM (inactive)

Q: And the GI50 [22]?
A: 26.1 µM (inactive)

Q: What about the GI50 [23] of the same molecule?
A: 30.7 µM (inactive)

Q: What about the GI50 [24] of the same molecule?
A: 23.8 µM (inactive)

Q: And the GI50 [25]?
A: 17.9 µM (inactive)

Q: And the GI50 [26]?
A: 26.9 µM (inactive)

Q: What about the GI50 [27] of the same molecule?
A: 38.5 µM (inactive)

Q: And the GI50 [28]?
A: > 100 µM (inactive)

Q: What about the GI50 [29] of the same molecule?
A: 16.3 µM (inactive)

Q: And the GI50 [30]?
A: 14.8 µM (inactive)

Q: What about the GI50 [31] of the same molecule?
A: 21.3 µM (inactive)

Q: What about the GI50 [32] of the same molecule?
A: 21.1 µM (inactive)

Q: And the GI50 [33]?
A: 56 µM (inactive)

Q: And the GI50 [34]?
A: 31.2 µM (inactive)

Q: What about the GI50 [35] of the same molecule?
A: 22.5 µM (inactive)

Q: And the GI50 [36]?
A: 31.3 µM (inactive)

Q: What about the GI50 [37] of the same molecule?
A: 32.1 µM (inactive)

Q: What about the GI50 [38] of the same molecule?
A: 19.4 µM (inactive)

Q: What about the GI50 [39] of the same molecule?
A: > 100 µM (inactive)

Q: And the GI50 [40]?
A: 33.5 µM (inactive)

Q: And the GI50 [41]?
A: 16.6 µM (inactive)

Q: And the GI50 [42]?
A: 38.5 µM (inactive)

Q: And the GI50 [43]?
A: 11.3 µM (inactive)

Q: What about the GI50 [44] of the same molecule?
A: 21 µM (inactive)

Q: What about the GI50 [45] of the same molecule?
A: 15.5 µM (inactive)

Q: And the GI50 [46]?
A: 21.8 µM (inactive)

Q: And the GI50 [47]?
A: 19.5 µM (inactive)

Q: What about the GI50 [48] of the same molecule?
A: 30.2 µM (inactive)

Q: And the GI50 [49]?
A: 21 µM (inactive)

Q: And the GI50 [50]?
A: 22 µM (inactive)

Q: What about the GI50 [51] of the same molecule?
A: 19.5 µM (inactive)

Q: And the GI50 [52]?
A: 81.8 µM (inactive)

Q: And the GI50 [53]?
A: > 100 µM (inactive)

Q: And the GI50 [54]?
A: 29.6 µM (inactive)

Q: And the GI50 [55]?
A: 17.2 µM (inactive)

Q: And the GI50 [56]?
A: 21.2 µM (inactive)

Q: And the GI50 [57]?
A: 25.6 µM (inactive)

Q: What does the source list for `O=C(O)CSC1=NCCN1`?
A: GI50 [1]: > 100 µM (inactive); GI50 [2]: > 100 µM (inactive); GI50 [3]: > 100 µM (inactive); GI50 [4]: > 100 µM (inactive); GI50 [5]: > 100 µM (inactive); GI50 [6]: > 100 µM (inactive); GI50 [7]: > 100 µM (inactive); GI50 [8]: > 100 µM (inactive); GI50 [9]: > 100 µM (inactive); GI50 [10]: > 100 µM (inactive); GI50 [11]: > 100 µM (inactive); GI50 [12]: > 100 µM (inactive); GI50 [13]: > 100 µM (inactive); GI50 [15]: > 100 µM (inactive); GI50 [16]: > 100 µM (inactive); GI50 [17]: > 100 µM; GI50 [18]: > 100 µM (inactive); GI50 [19]: > 100 µM (inactive); GI50 [20]: > 100 µM (inactive); GI50 [21]: > 100 µM (inactive); GI50 [22]: > 100 µM (inactive); GI50 [23]: > 100 µM (inactive); GI50 [24]: > 100 µM (inactive); GI50 [25]: > 100 µM (inactive); GI50 [26]: > 100 µM (inactive); GI50 [27]: > 100 µM (inactive); GI50 [28]: > 100 µM (inactive); GI50 [29]: > 100 µM (inactive); GI50 [30]: > 100 µM (inactive); GI50 [58]: > 100 µM (inactive); GI50 [31]: > 100 µM (inactive); GI50 [32]: > 100 µM (inactive); GI50 [33]: > 100 µM (inactive); GI50 [34]: > 100 µM (inactive); GI50 [35]: > 100 µM (inactive); GI50 [36]: > 100 µM (inactive); GI50 [37]: > 100 µM (inactive); GI50 [38]: > 100 µM (inactive); GI50 [39]: > 100 µM (inactive); GI50 [40]: > 100 µM (inactive); GI50 [41]: > 100 µM (inactive); GI50 [42]: > 100 µM (inactive); GI50 [43]: > 100 µM (inactive); GI50 [44]: > 100 µM (inactive); GI50 [46]: > 100 µM (inactive); GI50 [47]: > 100 µM (inactive); GI50 [48]: > 100 µM (inactive); GI50 [49]: > 100 µM (inactive); GI50 [50]: > 100 µM (inactive); GI50 [51]: > 100 µM (inactive); GI50 [52]: > 100 µM (inactive); GI50 [53]: > 100 µM (inactive); GI50 [54]: > 100 µM (inactive); GI50 [55]: > 100 µM (inactive); GI50 [56]: > 100 µM (inactive)

Q: Which results are given for `O=C(OCCN=C1c2ccccc2CCc2ccccc21)c1ccccc1`?
A: GI50 [2]: 18 µM (inactive); GI50 [3]: > 100 µM (inactive); GI50 [4]: > 100 µM (inactive); GI50 [5]: > 100 µM (inactive); GI50 [7]: > 100 µM (inactive); GI50 [8]: > 100 µM (inactive); GI50 [9]: > 100 µM (inactive); GI50 [10]: > 100 µM (inactive); GI50 [11]: > 100 µM (inactive); GI50 [12]: > 100 µM (inactive); GI50 [13]: > 100 µM (inactive); GI50 [14]: 53.1 µM (inactive); GI50 [15]: > 100 µM (inactive); GI50 [16]: > 100 µM (inactive); GI50 [17]: > 100 µM; GI50 [18]: > 100 µM (inactive); GI50 [19]: > 100 µM (inactive); GI50 [20]: > 100 µM (inactive); GI50 [21]: > 100 µM (inactive); GI50 [22]: > 100 µM (inactive); GI50 [23]: > 100 µM (inactive); GI50 [24]: > 100 µM (inactive); GI50 [25]: > 100 µM (inactive); GI50 [26]: > 100 µM (inactive); GI50 [27]: > 100 µM (inactive); GI50 [28]: > 100 µM (inactive); GI50 [29]: > 100 µM (inactive); GI50 [59]: > 100 µM (inactive); GI50 [30]: > 100 µM (inactive); GI50 [58]: > 100 µM (inactive); GI50 [31]: > 100 µM (inactive); GI50 [32]: > 100 µM (inactive); GI50 [33]: > 100 µM (inactive); GI50 [34]: > 100 µM (inactive); GI50 [35]: > 100 µM (inactive); GI50 [36]: > 100 µM (inactive); GI50 [37]: > 100 µM (inactive); GI50 [38]: > 100 µM (inactive); GI50 [39]: > 100 µM (inactive); GI50 [40]: > 100 µM (inactive); GI50 [41]: > 100 µM (inactive); GI50 [42]: > 100 µM (inactive); GI50 [43]: 13 µM (inactive); GI50 [44]: > 100 µM (inactive); GI50 [45]: > 100 µM (inactive); GI50 [46]: > 100 µM (inactive); GI50 [47]: > 100 µM (inactive); GI50 [48]: > 100 µM (inactive); GI50 [49]: > 100 µM (inactive); GI50 [50]: > 100 µM (inactive); GI50 [51]: > 100 µM (inactive); GI50 [52]: > 100 µM (inactive); GI50 [53]: > 100 µM (inactive); GI50 [54]: 15.2 µM (inactive); GI50 [55]: > 100 µM (inactive); GI50 [56]: > 100 µM (inactive); GI50 [57]: > 100 µM (inactive)

Reference: ChEMBL document CHEMBL1201862, “PubChem BioAssay data set” (2004)
